Activity calls are given as the source filed them. The calls are words filed in the database; no cut-off is given here.
Key:
[1] = Inhibition of guinea pig TGase 2 using F-Cad/DMC as substrate preincubated for 30 mins followed by substrate addition measured at 30 secs interval over 900 secs by fluorescence anisotropy assay; parameters: species or system Cavia porcellus
[2] = n-octanol-phosphate buffer partition coefficient, log D of compound at pH 7.4 by 19F NMR analysis; type: physicochemical
[3] = Membrane retention, RM of the compound; type: physicochemical
[4] = Chromatographic hydrophobicity index in immobilized artificial membrane at pH 7.4 by HPLC method; type: ADME, cell membranes
[5] = in vitro; settings: PAMPA
Description: Effective permeability of the compound by PAMPA assay

[6] = target: T1, Protein-glutamine gamma-glutamyltransferase (Homo sapiens, UniProt P21980); test: Inhibition of human TGase 2 using R-I-Cad/DMC as substrate preincubated for 5 mins followed by substrate addition measured at 30 secs interval over 900 secs by fluorescence anisotropy assay
T1 sequence (P21980 whole entry): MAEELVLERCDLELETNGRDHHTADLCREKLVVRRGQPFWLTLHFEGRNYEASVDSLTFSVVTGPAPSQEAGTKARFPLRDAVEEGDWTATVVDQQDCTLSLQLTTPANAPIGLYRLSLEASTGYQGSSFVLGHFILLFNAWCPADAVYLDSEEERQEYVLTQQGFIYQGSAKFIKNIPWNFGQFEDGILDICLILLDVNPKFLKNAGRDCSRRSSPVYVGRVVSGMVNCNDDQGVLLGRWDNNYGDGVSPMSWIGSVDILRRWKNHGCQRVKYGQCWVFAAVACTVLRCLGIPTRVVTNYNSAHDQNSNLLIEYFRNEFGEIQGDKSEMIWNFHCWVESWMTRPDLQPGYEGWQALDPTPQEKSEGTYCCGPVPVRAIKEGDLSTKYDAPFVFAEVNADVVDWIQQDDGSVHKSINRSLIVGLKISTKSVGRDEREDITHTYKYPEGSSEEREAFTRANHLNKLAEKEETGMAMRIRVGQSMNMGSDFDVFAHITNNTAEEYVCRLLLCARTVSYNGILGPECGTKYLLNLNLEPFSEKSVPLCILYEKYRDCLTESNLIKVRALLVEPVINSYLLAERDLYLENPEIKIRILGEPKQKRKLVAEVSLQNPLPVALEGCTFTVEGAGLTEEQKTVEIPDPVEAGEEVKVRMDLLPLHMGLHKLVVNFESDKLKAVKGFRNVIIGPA

[7] = target: T1, Protein-glutamine gamma-glutamyltransferase; test: Reversible inhibition of human TGase 2 using Z-Glu(HMC)-Gly-OH as substrate measured at 20 secs interval over 900 secs by fluorimetric assay
[8] = target: T1, Protein-glutamine gamma-glutamyltransferase; test: Irreversible inhibition of human TGase 2 using Z-Glu(HMC)-Gly-OH as substrate measured at 20 secs interval over 900 secs by fluorimetric assay
[9] = Metabolic stability in mouse liver microsomes assessed as parent compound remaining at 100 uM measured after 60 mins by HPLC-UV analysis; type: ADME, microsome; settings: for Stability: microsomes, 1 h, 100 µM; for remaining at 1 h, 100 µM: liver microsomes, read-out: Stability
[10] = target: T2, Protein-glutamine gamma-glutamyltransferase (Homo sapiens) (UniProt P21980); test: Inhibition of human TGase 2 assessed as enzyme activity factor using R-I-Cad/DMC as substrate at 10 to 240 nM preincubated for 40 mins followed by substrate addition measured at 30 secs interval over 900 secs by fluorescence anisotropy assay; parameters: scale not given: the % may be the effect or the level left
T2 sequence (whole entry): T1 sequence (P21980 whole entry)

[11] = target: T2, Protein-glutamine gamma-glutamyltransferase (Homo sapiens); test: Inhibition of human TGase 2 assessed as enzyme activity factor using Z-Glu(HMC)-Gly-OH as substrate at 5 to 100 nM preincubated for 40 mins followed by substrate addition measured over 300 secs by fluorimetric assay; parameters: scale not given: the % may be the effect or the level left
[12] = target: T1, Protein-glutamine gamma-glutamyltransferase; test: Inhibition of TGase 2 in human A375 cells using R-I-Cad/DMC as substrate preincubated for 5 mins followed by substrate addition measured at 30 secs interval over 900 secs by fluorescence anisotropy assay; type: cell-based
[13] = organism: Cavia porcellus; test: Irreversible inhibition of guinea pig TGase 2 using F-Cad/DMC as substrate at 30 uM preincubated for 30 mins followed by 1:100 dilution of compound-enzyme pre-incubated mixture at 30 secs interval over 900 secs by fluorescence anisotropy assay

| Compound | Rm [3] [%] | CHI [4] | Papp [5] [×10⁻⁶ cm/s] | Ki [8] [µM] | also measured |
| --- | --- | --- | --- | --- | --- |
| C=CC(=O)NCCCC[C@@H](NC(=O)Cc1ccccc1)C(=O)N1CCN(c2cccc(C)n2)CC1 | – | – | – | – | IC50 [1]: 0.79 µM |
| C=CC(=O)NCCCC[C@H](NC(=O)Nc1ccc(F)cc1)C(=O)N1CCN(c2cccc(C)n2)CC1 | 11 | 34.3 | 12.5 | – | IC50 [1]: 0.46 µM; logD [2]: 0.47 |
| C=CC(=O)NCCCC[C@H](NC(=O)c1ccc(F)cc1)C(=O)N1CCN(c2cccc(C)n2)CC1 | 16 | 31.4 | 12.7 | – | logD [2]: 0.28 |
| CCN(CC)c1ccc2c(-c3ccccc3C(=O)N3CCC(C(=O)NCCCCCN)CC3)c3ccc(=[N+](CC)CC)cc-3oc2c1 | – | – | – | – | Ki [6]: 6.81 µM; Ki [1]: 7.14 µM |
| NS(=O)(=O)c1cc2c(cc1Cl)NCNS2(=O)=O [HYDROCHLOROTHIAZIDE] | – | – | 0.06 | – | – |
| CCC(=O)NCCCC[C@H](NC(=O)Cc1ccccc1)C(=O)N1CCN(c2ccc([N+](=O)[O-])nc2)CC1 | – | – | – | – | Ki [7]: 15 µM |
| C=CC(=O)NCCCC[C@H](NC(=O)Cc1ccccc1)C(=O)N1CCN(c2cccc(Cl)n2)CC1 | – | – | – | – | IC50 [6]: 0.18 µM; IC50 [1]: 0.16 µM; Ki [7]: 4.43 µM |
| C=CC(=O)NCCCC[C@H](NC(=O)Cc1ccccc1)C(=O)N1CCN(c2ccc(C(=O)OC)nc2)CC1 | – | – | – | 7.12 | – |
| C=CC(=O)NCCCC[C@H](NC(=O)Cc1ccccc1)C(=O)N1CCN(c2cccnc2)CC1 | – | – | – | 2.6 | – |
| C=CC(=O)NCCCC[C@H](NC(=O)Cc1ccccc1)C(=O)N1CCN(S(=O)(=O)c2cccc3c(N(C)C)cccc23)CC1 | 38 | 37.7 | 7.68 | – | – |
| C=CC(=O)NCCCC[C@H](NC(=O)Cc1cccs1)C(=O)N1CCN(c2cccc(C)n2)CC1 | – | – | – | 5.56 | – |
| C=CC(=O)NCCCC[C@H](NC(=O)Cc1ccccc1)C(=O)N1CCN(c2ccc(F)nc2)CC1 | 4 | 26.8 | 3.54 | 10.9 | logD [2]: 1.66 |
| CCC(=O)NCCCC[C@H](NC(=O)Cc1ccccc1)C(=O)N1CCN(c2cccc(C)n2)CC1 | – | – | – | – | Ki [7]: 64.3 µM |
| C=CC(=O)NCCCC[C@H](NC(=O)Cc1ccccc1)C(=O)N1CCN(c2ccc(C(F)(F)F)nc2)CC1 | 11 | 31.8 | 8.98 | 6.77 | logD [2]: 2.13; Stability [9]: Stable |
| NCCCCCNC(=S)Nc1ccc2c(c1)C(=O)OC21c2ccc(O)cc2Oc2cc(O)ccc21 | – | – | – | – | Ki [1]: 9.15 µM |
| C=CC(=O)NCCCC[C@H](NC(=O)Cc1ccc(I)cc1)C(=O)N1CCN(c2cccc(C)n2)CC1 | – | – | – | – | IC50 [1]: 0.16 µM |
| C=CC(=O)NCCCC[C@H](NC(=O)Cc1ccccc1)C(=O)N1CCN(c2cccc(-c3ccccc3)n2)CC1 | 64 | 39 | 21.9 | – | IC50 [6]: 0.2 µM; IC50 [1]: 0.15 µM; Ki [7]: 7.76 µM |
| C=CC(=O)NCCCC[C@H](NC(=O)Cc1ccccc1)C(=O)N1CCN(c2cccc(Br)n2)CC1 | – | – | – | – | IC50 [6]: 0.22 µM; IC50 [1]: 0.2 µM; Ki [7]: 5.65 µM |
| C=CC(=O)NCCCC[C@H](NC(=O)Cc1ccccc1)C(=O)N1CCN(c2ccc([N+](=O)[O-])nc2)CC1 | – | – | – | 2.45 | IC50 [6]: 0.09 µM; IC50 [1]: 0.15 µM; Activity [10]: 80%; Activity [11]: 74.4% |
| C=CC(=O)NCCCC[C@H](NC(=O)Cc1ccccc1)C(=O)N1CCN(c2ccncc2)CC1 | 31 | 25.4 | 0.51 | 2.55 | Stability [9]: Stable |

| Compound | Rm [3] [%] | CHI [4] | Papp [5] [×10⁻⁶ cm/s] | Ki [8] [µM] | also measured |
| --- | --- | --- | --- | --- | --- |
| C=CC(=O)NCCCC[C@H](NC(=O)Cc1ccccc1)C(=O)N1CCN(Cc2ccc(F)cc2)CC1 | 12 | 32 | 10.3 | 7.6 | logD [2]: 2.65 |
| C=CC(=O)NCCCC[C@H](NC(=O)c1ccc(F)cc1)C(=O)N1CCN(c2ccc([N+](=O)[O-])nc2)CC1 | 12 | 28.5 | 4.08 | 14 | logD [2]: 2.21; Stability [9]: Stable |
| C=CC(=O)NCCCC[C@H](NC(=O)Cc1ccccc1)C(=O)N1CCN(c2ccc([N+](=O)[O-])cc2)CC1 | – | – | – | 2.52 | – |
| C=CC(=O)NCCCC[C@H](NC(=O)Cc1ccccc1)C(=O)N1CCN(C(=O)c2ccc(F)cc2)CC1 | -3 | 25 | 3.05 | 13.4 | logD [2]: 1.6; remaining at 1 h, 100 µM [9]: 85% |
| C=CC(=O)NCCCC[C@H](NC(=O)Cc1ccccc1F)C(=O)N1CCN(c2cccc([N+](=O)[O-])n2)CC1 | 12 | 30.7 | 8.74 | 1.98 | logD [2]: 2.25 |
| C=CC(=O)NCCCC[C@H](NC(=O)Cc1ccc(F)cc1)C(=O)N1CCN(c2ccc([N+](=O)[O-])nc2)CC1 | 9 | 28.3 | 1.97 | 5.02 | logD [2]: 1.85; Stability [9]: Stable |
| C=CC(=O)NCCCC[C@H](NC(=O)Cc1ccccc1)C(=O)N1CCN(c2cccc(C)n2)CC1 | -1 | 29.4 | 8.77 | – | IC50 [6]: 0.31 µM; IC50 [1]: 0.27 µM; IC50 [12]: 0.79 µM; inhibition [13]: Active; remaining at 1 h, 100 µM [9]: 62%; Ki [7]: 5.73 µM |
| C=CC(=O)NCCCC[C@H](NC(=O)Cc1ccccc1)C(=O)N1CCN(C(=O)c2ccc([N+](=O)[O-])cc2)CC1 | – | – | – | 7.71 | – |
| COCCc1ccc(OCC(O)CNC(C)C)cc1 (stereo not given) [METOPROLOL] | – | – | 4.04 | – | – |
| C=CC(=O)NCCCC[C@H](NC(=O)Cc1ccccc1)C(=O)N1CCN(c2cccc(C(C)(C)C)n2)CC1 | 69 | 39.5 | 21.9 | – | IC50 [6]: 0.17 µM; Ki [7]: 3.5 µM |
| C=CC(=O)NCCCC[C@H](NC(=O)Cc1ccccc1F)C(=O)N1CCN(c2cccc(C)n2)CC1 | 21 | 30.1 | 11.4 | 4.49 | – |
| C=CC(=O)NCCCC[C@H](NC(=O)Cc1ccccc1)C(=O)N1CCN(c2cccc(C)c2)CC1 | – | – | – | 7.55 | – |
| C=CC(=O)NCCCC[C@H](NC(=O)Cc1cccc(F)c1)C(=O)N1CCN(c2cccc(C)n2)CC1 | 24 | 30.9 | 12.5 | – | – |
| C=CC(=O)NCCCC[C@H](NC(=O)Nc1ccccc1)C(=O)N1CCN(c2ccc([N+](=O)[O-])nc2)CC1 | – | – | – | 7.96 | – |
| C=CC(=O)NCCCC[C@H](NC(=O)Cc1ccccc1)C(=O)N1CCN(c2ccccn2)CC1 | – | – | – | – | IC50 [6]: 0.34 µM; IC50 [1]: 0.31 µM; Stability [9]: Unstable; Ki [7]: 8.42 µM |
| C=CC(=O)NCCCC[C@H](NC(=O)Cc1ccccc1)C(=O)N1CCN(c2cccc(OCCF)n2)CC1 | – | – | – | – | IC50 [6]: 0.39 µM; IC50 [1]: 0.27 µM; Ki [7]: 7.32 µM |
| C=CC(=O)NCCCC[C@H](NC(=O)Cc1ccc(F)cc1)C(=O)N1CCN(c2cccc(C)n2)CC1 | 10 | 32.4 | 11.4 | – | logD [2]: 0.36 |
| C=CC(=O)NCCCC[C@H](NC(=O)Cc1ccccc1)C(=O)N1CCN(c2ccc(C(N)=O)nc2)CC1 | – | – | – | 5.72 | – |
| C=CC(=O)NCCCC[C@H](NC(=O)C(F)(F)F)C(=O)N1CCN(c2cccc(-c3ccccc3)n2)CC1 | – | – | – | 14.3 | – |
| C=CC(=O)NCCCC[C@H](NC(=O)Cc1ccccc1)C(=O)N1CCN(c2cccc(I)n2)CC1 | – | – | – | – | IC50 [6]: 0.14 µM; Ki [7]: 2.92 µM |

From ChEMBL document CHEMBL4219231, “Nε-Acryloyllysine Piperazides as Irreversible Inhibitors of Transglutaminase 2: Synthesis, Structure-Activity Relationships, and Pharmacokinetic Profiling” (J Med Chem, 2018)
